Measurements: paper PMC8362065, “Easily Available, Amphiphilic Diiron Cyclopentadienyl Complexes Exhibit in Vitro Anticancer Activity in 2D and 3D Human Cancer Cells through Redox Modulation Triggered by CO Release” (Chemistry (Weinheim an Der Bergstrasse, Germany), 2021)

Columns and labels:
[1] = Solubility pattern of the isolated compound (qualitative); format: physicochemical; settings: isolated solid
[2] = tested on: Embryonic kidney HEK293 cells; assay: MTT assay, noncancerous cell line; format: cell-based, human; settings: 72 h; for IC50: HEK293 noncancerous cells, MTT; for SI (selectivity index): IC50 in noncancerous HEK293 cells / average IC50 in cancer cells
Method: As one of the main drawbacks of chemotherapeutics is the toxic effect toward noncancerous cells, we measured the cytotoxicity of tested complexes against a noncancerous cell line (HEK293) and calculated the selectivity index (SI, defined as the ratio between the IC50 value in noncancerous cells and the corresponding average IC50 value related to cancer cells; Table 5).
Compounds [2B]BF4, [2C]CF3SO3, [2D]CF3SO3 and [3F]CF3SO3 were dissolved in water while the other compounds were dissolved in the minimum DMSO amount prior to cell culture testing. A calculated amount of the stock drug DMSO solution was added to the cell culture media to reach a final maximum DMSO concentration of 0.5 %, which had no effects on cell viability.
Cell cultures. Human colon (HCT‐15), pancreatic (PSN‐1) and breast (MCF‐7) carcinoma cell lines along with human melanoma cells (A375) were obtained from American Type Culture Collection (ATCC, Rockville, MD). Embryonic kidney HEK293 cells were obtained from the European Collection of Cell Cultures (ECACC, Salisbury, UK). Human ovarian 2008 cancer cells were kindly provided by Prof. G. Marverti (Dept. of Biomedical Science of Modena University, Italy). MCF‐7 ADR cells were kindly provided by Prof. N. Colabufo (Dept. Pharmacy, University of Bari, Italy). Cell lines were maintained in the logarithmic phase at 37 °C in a 5 % CO2 atmosphere using the following culture media containing 10 % fetal calf serum (Euroclone, Milan, Italy), antibiotics (50 units/mL penicillin and 50 μg/mL streptomycin) and 2 mM L‐glutamine: i) RPMI‐1640 medium (Euroclone, Milan, Italy) for PSN‐1, 2008, HCT‐15, MCF‐7 and MCF‐7 ADR cells; ii) DMEM for A375 and HEK293 cells.
MTT assay. The growth inhibitory effect towards tumour cells was evaluated by means of MTT assay as previously described.[57] Briefly, 3–8×10^3 cells/well, dependent upon the growth characteristics of the cell line, were seeded in 96‐well microplates in growth medium (100 μL). After 24 h, the medium was removed and replaced with a fresh one containing the compound to be studied at the appropriate concentration. Triplicate cultures were established for each treatment. After 24 or 72 h, each well was treated with 10 μL of a 5 mg/mL MTT saline solution, and following 5 h of incubation, 100 μL of a sodium dodecyl sulfate (SDS) solution in HCl 0.01 M were added. After an overnight incubation, cell growth inhibition was detected by measuring the absorbance of each well at 570 nm using a Bio‐Rad 680 microplate reader. Mean absorbance for each drug dose was expressed as a percentage of the control untreated well absorbance and plotted against drug concentration. IC50 values, the drug concentrations that reduce the mean absorbance at 570 nm to 50 % of those in the untreated control wells, were calculated by the four‐parameter logistic (4‐PL) model. Evaluation was based on means from at least four independent experiments.

[3] = tested on: 3D cell spheroids of human pancreatic (PSN‐1) cancer cells; assay: Acid phosphatase (APH) assay, 3D spheroid culture; format: cell-based; settings: PSN‐1 spheroids, 72 h, APH test
From the text: (§1) The remarkable cell‐killing effect observed in 2D cultured cells prompted us to evaluate the in vitro antitumor activity of the complexes on 3D cell cultures. Differently from 2D monolayer culture, 3D spheroid cell culture systems comprise cancer cells in various cell growth stages. Consequently, the multicellular cancer spheroid model is recognized to better reflect the tumour mass in vivo regarding drug permeation, cell interactions, gene expression, hypoxia and nutrient gradients with respect to monolayer cell cultures, making 3D models more predictive than conventional 2D monolayer cultures in screening antitumor drugs.[38] Table 6 summarizes the IC50 values obtained after treatment of 3D cell spheroids of human ovarian (2008) and pancreatic (PSN‐1) cancer cells with the diiron complexes and cisplatin.
(§2) Spheroid cultures. Spheroid cultures were obtained by seeding 2.5×10^3 cells/well in round bottom non‐tissue culture treated 96 well‐plate (Greiner Bio‐one, Kremsmünster, Austria) in phenol red free RPMI‐1640 medium (Sigma Chemical Co.), containing 10 % FCS and supplemented with 20 % methyl cellulose stock solution.
(§3) Acid phosphatase (APH) assay. An APH modified assay was used for determining cell viability in 3D spheroids, as previously described.[58] IC50 values were calculated with a four‐parameter logistic (4‐PL) model. All the values are the means ± SD of not less than four independent experiments.

[4] = tested on: 3D cell spheroids of human ovarian (2008) cancer cells; assay: Acid phosphatase (APH) assay, 3D spheroid culture; format: cell-based; settings: 2008 spheroids, 72 h, APH test
From the text: as §1, §2, §3

[5] = Stability in D2O, D2O/CD3OD and DMSO-d6/D2O at 37 °C by 1H NMR; format: physicochemical
Method: A detailed study on the behaviour of a selection of the diiron complexes in aqueous media was undertaken. Experimental procedures are provided in the Experimental Section and in the Supporting Information, with data collected in Tables 3, S3 and S4. […] The octanol/water partition coefficients (log P ow) were measured by a UV/Vis method and fall in between 0 and −1, reflecting an amphiphilic or slightly hydrophilic character. […] Conversely, those complexes with aromatic groups (i. e., 1H‐indol‐6‐yl, 2‐naphthyl and bis‐benzyl in [2A]^+, [3G]^+, [4G]^+ and [5H]^+) are less soluble in water and display increased affinity for n‐octanol (log P ow≈0). The diiron compounds are inert in aqueous solution at room temperature, and undergo a slow degradation at 37 °C. Under such conditions, a variable amount (50 to 86 %; Table S3) of the starting material was detected by ^1H NMR in D2O or D2O/CD3OD mixtures after 72 h.[33] During this time, the precipitation of a brown solid was observed, which in one case (from a [2C]CF3SO3 solution) was separated and identified as γ‐Fe2O3 by Raman analysis. In addition, headspace GC analyses performed on 5 % MeOH aqueous solutions of the compounds maintained at 37 °C allowed the identification and quantitation of the carbon monoxide released over a 48 h period (Table S4). These facts indicate that the thermal degradation process in aqueous solution leads to the progressive disassembly of the organometallic scaffold.[16] The presumed, controlled release of the iron centres (converted to iron oxide, see above) and carbon monoxide are two aspects that deserve attention with reference to the biological activity: note that the decay of ferrocene drug candidates into Fe^II ions was previously associated to their cytotoxicity,[34] while the activity of various iron carbonyl complexes was correlated to CO dissociation in the physiological media.[35]
Stability in water (D2O) and cell culture medium. The procedures are described in the Supporting Information, and data are collected in Table S3.
Table S3. Stability of diiron complexes in D2O, D2O/CD3OD, DMSO-d6/D2O and cell culture medium (DMEM-
d/CD3OD) solution at 37 °C calculated by 1H NMR (Me2SO2 internal standard).
% starting material (72 h) % starting material
Compound D O D O/CD OD DMSO-d /D O DMEM-d
[a] X = I for the stability in D 2O, X = CF3SO3 for the stability in cell culture medium. [b] Stability in D 2O and […]

Solubility in water (qualitative) [1]	IC50 [3] [µM]	IC50 [4] [µM]	% starting material (72 h) ([5]; D2O/CD3OD 5:4 v/v) [%]	% starting material (72 h) ([5]; DMSO-d6/D2O 1:1 v/v) [%]	% starting material (72 h) ([5]; DMSO-d6/D2O 5:3 v/v) [%]	% starting material (72 h) ([5]; D2O/CD3OD 2:1 v/v) [%]	IC50±SD (μM) [3]	IC50±SD (μM) [4]	Substance	IC50 [2] [µM]	SI (selectivity index) [2]	% starting material (72 h) ([5]; D2O)
poorly soluble	86.2 ± 6.4	73.2 ± 6.2	65	89					[Fe2Cp2(CO)2(μ‐CO){μ‐CNBn2}]X [[5H]CF3SO3]	98.3 ± 4.2	2.8	ca. 50%
insoluble	77.4 ± 8.4	58.9 ± 4.8	51		42				[Fe2Cp2(CO)2(μ‐CO){μ‐CNEt(2‐naphthyl)}]BF4 [[4G]BF4]	89.5 ± 4.5	3.3	
insoluble	> 100	> 100		89		55			[Fe2Cp2(CO)2(μ‐CO){μ‐CNMe(1H‐indol‐6‐yl)}]CF3SO3 [[2A]CF3SO3]	136 ± 6.4	2.3	
soluble	> 100	> 100					ineffective	ineffective	[Fe2Cp2(CO)2(μ‐CO){μ‐CNMe(CH2CHCH2)}]X [[3F]CF3SO3]	> 100		
soluble	> 100	> 100				81			[Fe2Cp2(CO)2(μ‐CO){μ‐CNMe(CH2PO3Et2)}]X [[2B]BF4]	> 100		85%

Substance	Solubility in water (qualitative) [1]	IC50 [3] [µM]	IC50 [4] [µM]	% starting material (72 h) ([5]; D2O/CD3OD 5:4 v/v) [%]	% starting material (72 h) ([5]; DMSO-d6/D2O 1:1 v/v) [%]	% starting material (72 h) ([5]; DMSO-d6/D2O 5:3 v/v) [%]	% starting material (72 h) ([5]; D2O/CD3OD 2:1 v/v) [%]	IC50±SD (μM) [3]	IC50±SD (μM) [4]	IC50 [2] [µM]	SI (selectivity index) [2]	% starting material (72 h) ([5]; D2O)
[Fe2Cp2(CO)2(μ‐CO){μ‐CNMe(4‐C6H4OMe)}]CF3SO3 [[2D]CF3SO3]	soluble	53.7 ± 6.1	42.8 ± 4.2							94.3 ± 6.1	5.6	86%
[Fe2Cp2(CO)2(μ‐CO){μ‐CNMe(C6H11)}]X [[2C]CF3SO3]	less soluble	78.2 ± 9.1	66.4 ± 8.6							62.5 ± 4.9	3.6	75%
